Columns and labels:
[1] = target: Protein polybromo-1 (Homo sapiens) (UniProt Q86U86); settings: Compound concentration 10.0 uM, Protein concentration 2.0 uM
[2] = target: Peregrin (Homo sapiens) (UniProt P55201); settings: Compound concentration 10.0 uM, Protein concentration 2.0 uM
[3] = target: ATPase family AAA domain-containing protein 2B (Homo sapiens) (UniProt Q9ULI0); settings: Compound concentration 10.0 uM, Protein concentration 2.0 uM
[4] = target: Histone acetyltransferase p300 (Homo sapiens) (UniProt Q09472); settings: Compound concentration 10.0 uM, Protein concentration 2.0 uM
[5] = target: Histone-lysine N-methyltransferase 2A (Homo sapiens) (UniProt Q03164); settings: Compound concentration 10.0 uM, Protein concentration 2.0 uM
[6] = target: T1, CREB-binding protein (Homo sapiens, UniProt Q92793); assay: Alphascreen assay. Binding to CREBBPA (domain start/stop: R1081-G1197) by alphascreen assay
[7] = target: T2, Chromatin remodeling regulator CECR2 (Homo sapiens, UniProt Q9BXF3); settings: Compound concentration 10.0 uM, Protein concentration 2.0 uM
[8] = target: T2, Chromatin remodeling regulator CECR2; assay: Alphascreen assay. Binding to CECR2A (domain start/stop: P420-D543) by alphascreen assay
[9] = target: Bromodomain-containing protein 7 (Homo sapiens) (UniProt Q9NPI1); settings: Compound concentration 10.0 uM, Protein concentration 2.0 uM
[10] = target: Transcription intermediary factor 1-beta (Homo sapiens) (UniProt Q13263); settings: Compound concentration 10.0 uM, Protein concentration 2.0 uM
[11] = target: T2, Chromatin remodeling regulator CECR2; assay: Alphascreen assay. Binding to CECR2A (domain start/stop: P420-H538) by alphascreen assay
[12] = target: Tyrosine-protein kinase BAZ1B (Homo sapiens) (UniProt Q9UIG0); settings: Compound concentration 10.0 uM, Protein concentration 2.0 uM
[13] = target: Bromodomain adjacent to zinc finger domain protein 1A (Homo sapiens) (UniProt Q9NRL2); settings: Compound concentration 10.0 uM, Protein concentration 2.0 uM
[14] = target: Transcription intermediary factor 1-alpha (Homo sapiens) (UniProt O15164); settings: Compound concentration 10.0 uM, Protein concentration 2.0 uM
[15] = target: Transcription initiation factor TFIID subunit 1 (Homo sapiens) (UniProt P21675); settings: Compound concentration 10.0 uM, Protein concentration 2.0 uM
Transcription initiation factor TFIID subunit 1 (Homo sapiens), sequence (P21675 whole entry): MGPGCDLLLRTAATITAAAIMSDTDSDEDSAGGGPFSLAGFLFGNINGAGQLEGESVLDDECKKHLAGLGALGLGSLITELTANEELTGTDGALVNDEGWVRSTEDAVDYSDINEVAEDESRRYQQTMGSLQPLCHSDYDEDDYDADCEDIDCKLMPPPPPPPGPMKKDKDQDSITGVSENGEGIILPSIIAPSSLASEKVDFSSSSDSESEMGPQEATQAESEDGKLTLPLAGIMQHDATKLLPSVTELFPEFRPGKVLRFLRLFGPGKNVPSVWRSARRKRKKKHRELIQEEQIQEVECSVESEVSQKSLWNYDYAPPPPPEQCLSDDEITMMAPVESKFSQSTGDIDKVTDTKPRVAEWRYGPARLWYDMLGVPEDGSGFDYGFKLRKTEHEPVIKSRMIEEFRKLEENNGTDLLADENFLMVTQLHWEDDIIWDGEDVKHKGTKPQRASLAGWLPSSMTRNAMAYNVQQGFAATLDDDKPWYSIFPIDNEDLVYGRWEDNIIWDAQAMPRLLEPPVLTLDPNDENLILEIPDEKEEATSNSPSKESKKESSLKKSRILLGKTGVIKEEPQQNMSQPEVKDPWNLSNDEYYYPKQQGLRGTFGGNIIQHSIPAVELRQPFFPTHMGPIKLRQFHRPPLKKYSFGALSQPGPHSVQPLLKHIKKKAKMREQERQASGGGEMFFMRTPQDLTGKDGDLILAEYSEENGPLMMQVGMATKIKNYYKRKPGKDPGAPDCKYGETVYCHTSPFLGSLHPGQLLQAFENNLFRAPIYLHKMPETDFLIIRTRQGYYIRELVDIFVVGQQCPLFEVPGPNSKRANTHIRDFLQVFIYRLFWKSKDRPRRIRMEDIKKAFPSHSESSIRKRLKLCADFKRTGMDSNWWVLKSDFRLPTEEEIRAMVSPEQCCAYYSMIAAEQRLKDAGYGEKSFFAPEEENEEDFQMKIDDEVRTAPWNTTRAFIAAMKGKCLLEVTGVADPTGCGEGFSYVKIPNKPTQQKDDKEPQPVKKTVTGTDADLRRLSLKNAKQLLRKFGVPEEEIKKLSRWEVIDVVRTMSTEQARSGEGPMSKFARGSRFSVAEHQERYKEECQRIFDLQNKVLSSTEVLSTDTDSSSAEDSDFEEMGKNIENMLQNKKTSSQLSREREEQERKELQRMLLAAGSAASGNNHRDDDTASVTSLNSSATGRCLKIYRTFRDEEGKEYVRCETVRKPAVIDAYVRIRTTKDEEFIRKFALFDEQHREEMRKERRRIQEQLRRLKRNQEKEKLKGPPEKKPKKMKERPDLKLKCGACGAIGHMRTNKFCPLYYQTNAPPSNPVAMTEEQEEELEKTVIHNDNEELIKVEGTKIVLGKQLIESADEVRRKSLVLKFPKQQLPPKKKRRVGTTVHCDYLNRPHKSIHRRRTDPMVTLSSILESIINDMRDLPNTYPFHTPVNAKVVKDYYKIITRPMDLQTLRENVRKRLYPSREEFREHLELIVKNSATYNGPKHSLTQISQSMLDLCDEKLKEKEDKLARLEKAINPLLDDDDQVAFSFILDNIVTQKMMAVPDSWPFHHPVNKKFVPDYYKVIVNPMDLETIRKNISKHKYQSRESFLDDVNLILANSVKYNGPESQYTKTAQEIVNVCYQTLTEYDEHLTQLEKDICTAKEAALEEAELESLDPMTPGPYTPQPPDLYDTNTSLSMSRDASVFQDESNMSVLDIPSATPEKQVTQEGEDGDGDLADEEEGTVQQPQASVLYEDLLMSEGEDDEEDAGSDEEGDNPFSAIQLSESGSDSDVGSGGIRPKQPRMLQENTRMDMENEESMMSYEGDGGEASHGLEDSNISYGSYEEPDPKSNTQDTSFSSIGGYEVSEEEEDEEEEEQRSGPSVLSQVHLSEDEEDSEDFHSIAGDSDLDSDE

[16] = target: Protein polybromo-1 (Homo sapiens) (UniProt Q86U86); settings: Compound concentration 10.0 uM, Protein concentration 2.0 uM; remark: listed apart in the source
[17] = target: Bromodomain adjacent to zinc finger domain protein 2A (Homo sapiens) (UniProt Q9UIF9); settings: Compound concentration 10.0 uM, Protein concentration 2.0 uM
[18] = target: Peregrin (Homo sapiens) (UniProt P55201); settings: Compound concentration 10.0 uM, Protein concentration 2.0 uM; remark: listed apart in the source
[19] = target: Bromodomain testis-specific protein (Homo sapiens) (UniProt Q58F21); settings: Compound concentration 10.0 uM, Protein concentration 2.0 uM
[20] = target: Transcription initiation factor TFIID subunit 1 (Homo sapiens) (UniProt P21675); settings: Compound concentration 10.0 uM, Protein concentration 2.0 uM; remark: listed apart in the source
[21] = target: Bromodomain-containing protein 2 (Homo sapiens) (UniProt P25440); settings: Compound concentration 10.0 uM, Protein concentration 2.0 uM
[22] = target: Bromodomain and WD repeat-containing protein 1 (Homo sapiens) (UniProt Q9NSI6); settings: Compound concentration 10.0 uM, Protein concentration 2.0 uM
[23] = target: Peregrin (Homo sapiens, UniProt P55201); assay: Alphascreen assay. Binding to BRPF1B (domain start/stop: M626-G740) by alphascreen assay
Peregrin, sequence (P55201 whole entry): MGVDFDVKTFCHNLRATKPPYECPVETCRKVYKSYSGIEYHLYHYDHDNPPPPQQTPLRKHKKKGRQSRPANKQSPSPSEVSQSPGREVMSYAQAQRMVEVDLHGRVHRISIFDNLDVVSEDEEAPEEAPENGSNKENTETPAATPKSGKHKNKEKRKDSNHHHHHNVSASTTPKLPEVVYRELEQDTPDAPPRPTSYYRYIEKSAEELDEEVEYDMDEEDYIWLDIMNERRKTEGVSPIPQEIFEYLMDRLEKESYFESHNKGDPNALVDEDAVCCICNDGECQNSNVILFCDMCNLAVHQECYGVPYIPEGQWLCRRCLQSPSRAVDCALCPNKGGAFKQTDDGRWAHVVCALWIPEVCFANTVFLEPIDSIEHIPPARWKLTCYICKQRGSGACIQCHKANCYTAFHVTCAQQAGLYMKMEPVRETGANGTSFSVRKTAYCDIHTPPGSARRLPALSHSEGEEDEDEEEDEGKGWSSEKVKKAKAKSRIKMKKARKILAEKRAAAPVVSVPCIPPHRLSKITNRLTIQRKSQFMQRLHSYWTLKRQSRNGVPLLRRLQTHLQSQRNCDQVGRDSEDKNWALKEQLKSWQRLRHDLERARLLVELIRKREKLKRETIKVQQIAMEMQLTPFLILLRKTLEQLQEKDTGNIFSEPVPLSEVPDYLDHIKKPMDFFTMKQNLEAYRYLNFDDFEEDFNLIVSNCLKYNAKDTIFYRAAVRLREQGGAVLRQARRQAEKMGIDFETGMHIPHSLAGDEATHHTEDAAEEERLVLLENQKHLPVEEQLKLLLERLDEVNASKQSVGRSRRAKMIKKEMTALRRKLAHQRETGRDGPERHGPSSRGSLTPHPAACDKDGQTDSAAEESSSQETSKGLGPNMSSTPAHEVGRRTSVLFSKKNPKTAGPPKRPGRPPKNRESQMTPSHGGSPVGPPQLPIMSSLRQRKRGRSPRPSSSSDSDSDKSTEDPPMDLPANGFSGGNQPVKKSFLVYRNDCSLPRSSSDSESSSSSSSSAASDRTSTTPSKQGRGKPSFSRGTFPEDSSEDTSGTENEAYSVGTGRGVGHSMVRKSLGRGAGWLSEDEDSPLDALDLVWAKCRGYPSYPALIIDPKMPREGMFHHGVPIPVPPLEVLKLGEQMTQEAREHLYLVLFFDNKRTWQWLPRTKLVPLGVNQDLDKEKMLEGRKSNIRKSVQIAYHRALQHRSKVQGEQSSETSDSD

[24] = target: Bromodomain-containing protein 2 (Homo sapiens) (UniProt P25440); settings: Compound concentration 10.0 uM, Protein concentration 2.0 uM; remark: listed apart in the source
[25] = target: SWI/SNF-related matrix-associated actin-dependent regulator of chromatin subfamily A member 2 (Homo sapiens) (UniProt P51531); settings: Compound concentration 10.0 uM, Protein concentration 2.0 uM
[26] = target: SWI/SNF-related matrix-associated actin-dependent regulator of chromatin subfamily A member 4 (Homo sapiens) (UniProt P51532); settings: Compound concentration 10.0 uM, Protein concentration 2.0 uM
[27] = target: T1, CREB-binding protein; settings: Compound concentration 10.0 uM, Protein concentration 2.0 uM
[28] = target: Nuclear body protein SP140-like protein (Homo sapiens) (UniProt Q9H930); settings: Compound concentration 10.0 uM, Protein concentration 2.0 uM
[29] = target: Protein polybromo-1 (Homo sapiens) (UniProt Q86U86); settings: Compound concentration 10.0 uM, Protein concentration 2.0 uM; remark: listed apart in the source
[30] = target: Histone acetyltransferase KAT2B (Homo sapiens) (UniProt Q92831); settings: Compound concentration 10.0 uM, Protein concentration 2.0 uM
[31] = target: Bromodomain and WD repeat-containing protein 3 (Homo sapiens) (UniProt Q6RI45); settings: Compound concentration 10.0 uM, Protein concentration 2.0 uM
[32] = target: Nuclear body protein SP140 (Homo sapiens) (UniProt Q13342); settings: Compound concentration 10.0 uM, Protein concentration 2.0 uM
[33] = target: ATPase family AAA domain-containing protein 2 (Homo sapiens) (UniProt Q6PL18); settings: Compound concentration 10.0 uM, Protein concentration 2.0 uM
[34] = target: Histone-lysine N-methyltransferase ASH1L (Homo sapiens) (UniProt Q9NR48); settings: Compound concentration 10.0 uM, Protein concentration 2.0 uM
[35] = target: Bromodomain-containing protein 3 (Homo sapiens) (UniProt Q15059); settings: Compound concentration 10.0 uM, Protein concentration 2.0 uM
[36] = target: Protein polybromo-1 (Homo sapiens) (UniProt Q86U86); settings: Compound concentration 10.0 uM, Protein concentration 2.0 uM; remark: listed apart in the source
[37] = target: PH-interacting protein (Homo sapiens) (UniProt Q8WWQ0); settings: Compound concentration 10.0 uM, Protein concentration 2.0 uM
[38] = target: Bromodomain testis-specific protein (Homo sapiens) (UniProt Q58F21); settings: Compound concentration 10.0 uM, Protein concentration 2.0 uM; remark: listed apart in the source
[39] = target: Bromodomain-containing protein 9 (Homo sapiens) (UniProt Q9H8M2); settings: Compound concentration 10.0 uM, Protein concentration 2.0 uM
[40] = target: Transcription initiation factor TFIID subunit 1-like (Homo sapiens) (UniProt Q8IZX4); settings: Compound concentration 10.0 uM, Protein concentration 2.0 uM
[41] = target: Bromodomain-containing protein 3 (Homo sapiens) (UniProt Q15059); settings: Compound concentration 10.0 uM, Protein concentration 2.0 uM; remark: listed apart in the source
[42] = target: Protein polybromo-1 (Homo sapiens) (UniProt Q86U86); settings: Compound concentration 10.0 uM, Protein concentration 2.0 uM; remark: listed apart in the source
[43] = target: Protein polybromo-1 (Homo sapiens) (UniProt Q86U86); settings: Compound concentration 10.0 uM, Protein concentration 2.0 uM; remark: listed apart in the source
[44] = target: Nucleosome-remodeling factor subunit BPTF (Homo sapiens) (UniProt Q12830); settings: Compound concentration 10.0 uM, Protein concentration 2.0 uM
[45] = target: Bromodomain-containing protein 1 (Homo sapiens) (UniProt O95696); settings: Compound concentration 10.0 uM, Protein concentration 2.0 uM
[46] = target: Bromodomain adjacent to zinc finger domain protein 2B (Homo sapiens) (UniProt Q9UIF8); settings: Compound concentration 10.0 uM, Protein concentration 2.0 uM
[47] = target: Transcription initiation factor TFIID subunit 1-like (Homo sapiens) (UniProt Q8IZX4); settings: Compound concentration 10.0 uM, Protein concentration 2.0 uM; remark: listed apart in the source
[48] = target: Bromodomain and PHD finger-containing protein 3 (Homo sapiens) (UniProt Q9ULD4); settings: Compound concentration 10.0 uM, Protein concentration 2.0 uM
[49] = target: Bromodomain-containing protein 4 (Homo sapiens) (UniProt O60885); settings: Compound concentration 10.0 uM, Protein concentration 2.0 uM
[50] = target: Histone acetyltransferase KAT2A (Homo sapiens) (UniProt Q92830); settings: Compound concentration 10.0 uM, Protein concentration 2.0 uM

Protein polybromo-1 (Homo sapiens), sequence (Q86U86 whole entry, the tested form may be a part): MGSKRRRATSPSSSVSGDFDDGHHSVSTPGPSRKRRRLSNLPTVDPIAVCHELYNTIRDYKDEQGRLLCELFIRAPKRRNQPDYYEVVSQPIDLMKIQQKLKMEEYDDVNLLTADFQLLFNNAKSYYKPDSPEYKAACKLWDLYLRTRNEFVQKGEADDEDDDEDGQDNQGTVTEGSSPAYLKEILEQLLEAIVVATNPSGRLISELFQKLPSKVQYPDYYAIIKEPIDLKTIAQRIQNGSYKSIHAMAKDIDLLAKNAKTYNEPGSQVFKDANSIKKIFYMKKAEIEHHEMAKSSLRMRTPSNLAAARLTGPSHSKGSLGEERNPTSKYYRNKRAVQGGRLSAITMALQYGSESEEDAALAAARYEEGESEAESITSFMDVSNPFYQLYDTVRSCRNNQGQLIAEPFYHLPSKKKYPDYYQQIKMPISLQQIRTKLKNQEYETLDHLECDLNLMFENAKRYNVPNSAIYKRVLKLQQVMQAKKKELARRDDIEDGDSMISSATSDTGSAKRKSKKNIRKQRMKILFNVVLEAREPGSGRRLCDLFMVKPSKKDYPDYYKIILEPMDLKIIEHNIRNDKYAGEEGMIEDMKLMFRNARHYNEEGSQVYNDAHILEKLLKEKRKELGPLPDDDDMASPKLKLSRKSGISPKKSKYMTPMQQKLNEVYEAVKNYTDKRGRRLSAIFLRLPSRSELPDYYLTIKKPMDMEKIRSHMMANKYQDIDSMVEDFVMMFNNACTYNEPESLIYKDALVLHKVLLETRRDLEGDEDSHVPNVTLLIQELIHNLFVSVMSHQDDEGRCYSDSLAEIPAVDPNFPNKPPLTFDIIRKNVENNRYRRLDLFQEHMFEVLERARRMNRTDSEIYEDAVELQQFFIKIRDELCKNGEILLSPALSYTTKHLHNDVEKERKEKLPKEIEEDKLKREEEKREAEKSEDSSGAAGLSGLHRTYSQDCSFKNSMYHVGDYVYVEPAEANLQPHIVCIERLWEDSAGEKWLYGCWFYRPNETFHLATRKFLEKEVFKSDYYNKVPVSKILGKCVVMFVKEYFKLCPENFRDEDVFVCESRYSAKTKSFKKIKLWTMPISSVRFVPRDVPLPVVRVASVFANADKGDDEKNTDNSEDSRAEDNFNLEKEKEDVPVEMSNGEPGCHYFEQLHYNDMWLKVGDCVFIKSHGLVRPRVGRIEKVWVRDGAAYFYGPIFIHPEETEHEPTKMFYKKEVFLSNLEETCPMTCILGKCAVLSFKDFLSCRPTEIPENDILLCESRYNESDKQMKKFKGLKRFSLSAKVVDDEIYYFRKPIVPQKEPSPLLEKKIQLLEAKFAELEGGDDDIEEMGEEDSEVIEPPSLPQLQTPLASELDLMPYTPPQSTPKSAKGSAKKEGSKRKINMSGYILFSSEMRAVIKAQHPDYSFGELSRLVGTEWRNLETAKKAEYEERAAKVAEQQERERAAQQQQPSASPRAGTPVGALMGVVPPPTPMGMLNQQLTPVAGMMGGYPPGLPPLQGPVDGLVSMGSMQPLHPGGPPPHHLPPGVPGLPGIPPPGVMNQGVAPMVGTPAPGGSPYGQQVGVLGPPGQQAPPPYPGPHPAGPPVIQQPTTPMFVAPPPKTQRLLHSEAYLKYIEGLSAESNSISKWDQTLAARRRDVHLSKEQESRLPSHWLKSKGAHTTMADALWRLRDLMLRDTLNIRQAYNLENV
Peregrin (Homo sapiens), sequence (P55201 whole entry, the tested form may be a part): as the sequence (P55201 whole entry) above

ΔTm [1]: -0.26 °C
ΔTm [2]: 0.29 °C
ΔTm [3]: 0.11 °C
ΔTm [4]: 3.55 °C
ΔTm [5]: 0.02 °C
IC50 [6]: 3440 nM
ΔTm [7]: 3.76 °C
IC50 [8]: 2430 nM
ΔTm [9]: 6.98 °C
ΔTm [10]: -0.06 °C
IC50 [11]: 2390 nM
ΔTm [12]: 0.68 °C
ΔTm [13]: 1.19 °C
ΔTm [14]: 1.33 °C
ΔTm [15]: 0.25 °C
ΔTm [16]: -0.01 °C
ΔTm [17]: 1.02 °C
ΔTm [18]: 0.67 °C
ΔTm [19]: 0.83 °C
ΔTm [20]: 1.04 °C
ΔTm [21]: 1.14 °C
ΔTm [22]: 0.79 °C
IC50 [23]: 2230 nM
ΔTm [24]: 0.84 °C
ΔTm [25]: 0.13 °C
ΔTm [26]: 0.08 °C
ΔTm [27]: 2.98 °C
ΔTm [28]: 0.95 °C
ΔTm [29]: 0.08 °C
ΔTm [30]: 0.7 °C
ΔTm [31]: 1.67 °C
ΔTm [32]: 0.3 °C
ΔTm [33]: 0.18 °C
ΔTm [34]: 0.38 °C
ΔTm [35]: 0.91 °C
ΔTm [36]: -0.13 °C
ΔTm [37]: 0.41 °C
ΔTm [38]: 0.61 °C
ΔTm [39]: 9.32 °C
ΔTm [40]: 0.18 °C
ΔTm [41]: 1.01 °C
ΔTm [42]: 0.08 °C
ΔTm [43]: 0.19 °C
ΔTm [44]: -0.04 °C
ΔTm [45]: 0.25 °C
ΔTm [46]: 1.04 °C
ΔTm [47]: 1.64 °C
ΔTm [48]: 0.4 °C
ΔTm [49]: 1.78 °C
ΔTm [50]: 0.61 °C
SMILES: CC(=O)c1cc(-c2cc(C(=O)NC3CC3)ccc2C)c2ncccn12

From ChEMBL document CHEMBL4649997, “Data for probe TP-472” (2021)
